Laboratory results reported in PubChem BioAssay AID1919002 (Molecular Pharmacology Branch, DTP, NCI, 2023).

Test system: 743489-274-T-PDC complex spheroid growth
Assay: Anticancer human tumor 743489-274-T-PDC patient-derived renal cell carcinoma cell line growth inhibition [AhR]
Conditions: for IC50: curve of first compound; for viability, T/C: stronger effect = lower value; active = viability on the fitted dose curve at most 10% of control; inactive = the rest
Procedure, shortened: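 Agents were dosed in half-log steps down from roughly clinical Cmax, or from 10 microM where Cmax was unknown, alone and with AhR antagonists. Read-out: percent test/control growth of tumor spheroids containing HUVEC and MSC stromal cells.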
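Also: spheroids exposed to agents for 7 days before readout.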
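For viability, T/C in this document: 100% = DMSO vehicle control wells.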

COc1cc(C2c3cc4c(cc3C(OC3OC5COC(C)OC5C(O)C3O)C3COC(=O)C23)OCO4)cc(OC)c1O (stereo not given) + Cc1ccccc1N=Nc1ccc(NC(=O)c2ccnn2C)c(C)c1
inactive: viability, T/C (second compound 0.1 µM, first compound 0.0316 µM) 98.7% | viability, T/C (second compound 0.1 µM, first compound 0.1 µM) 87% | viability, T/C (second compound 0.1 µM, first compound 0.316 µM) 97.2% | viability, T/C (second compound 0.1 µM, first compound 1 µM) 94.4% | viability, T/C (second compound 0.1 µM, first compound 3.16 µM) 98.3% | viability, T/C (second compound 0.1 µM, first compound 10 µM) 79.9% | viability, T/C (second compound 0.316 µM, first compound 0.0316 µM) 91.2% | viability, T/C (second compound 0.316 µM, first compound 0.1 µM) 93.6% | viability, T/C (second compound 0.316 µM, first compound 0.316 µM) 91.2% | viability, T/C (second compound 0.316 µM, first compound 1 µM) 88.9% | viability, T/C (second compound 0.316 µM, first compound 3.16 µM) 77.9% | viability, T/C (second compound 0.316 µM, first compound 10 µM) 80.7% | viability, T/C (second compound 1 µM, first compound 0.0316 µM) 86.7% | viability, T/C (second compound 1 µM, first compound 0.1 µM) 93.7% | viability, T/C (second compound 1 µM, first compound 0.316 µM) 90.7% | viability, T/C (second compound 1 µM, first compound 1 µM) 88.9% | viability, T/C (second compound 1 µM, first compound 3.16 µM) 90.4% | viability, T/C (second compound 1 µM, first compound 10 µM) 74.8% | viability, T/C (second compound 3.16 µM, first compound 0.0316 µM) 83.3% | viability, T/C (second compound 3.16 µM, first compound 0.1 µM) 90.2% | viability, T/C (second compound 3.16 µM, first compound 0.316 µM) 86.9% | viability, T/C (second compound 3.16 µM, first compound 1 µM) 78.8% | viability, T/C (second compound 3.16 µM, first compound 3.16 µM) 78.6% | viability, T/C (second compound 3.16 µM, first compound 10 µM) 75.8% | viability, T/C (second compound 10 µM, first compound 0.0316 µM) 78.4% | viability, T/C (second compound 10 µM, first compound 0.1 µM) 81.8% | viability, T/C (second compound 10 µM, first compound 0.316 µM) 95.1% | viability, T/C (second compound 10 µM, first compound 1 µM) 72% | viability, T/C (second compound 10 µM, first compound 3.16 µM) 69.4% | viability, T/C (second compound 10 µM, first compound 10 µM) 70.7%
> 10 µM: IC50 (second compound 0.1 µM) | IC50 (second compound 0.316 µM) | IC50 (second compound 1 µM) | IC50 (second compound 3.16 µM) | IC50 (second compound 10 µM)
